pEC50, pIC50: −log10 of the molar value.
Experiments:
[1] = Cytotoxicity in mock-infected MT-4 cells (MTT); type: cell-based; details: human, read-out: CC50 in MT4-IIIB (μm)
Method: A rapid and automated assay procedure was used for the in vitro evaluation of anti-HIV agents. An HTLV-1 transformed T4-cell line MT-4, which was previously shown to be highly susceptible to and permissive for HIV infection, served as the target cell line. Inhibition of the HIV-induced cytopathogenic effect was used as the end point. The viability of both HIV-and mock-infected cells was assessed spectrophotometrically via in situ reduction of 3-(4,5-dimethylthiazol-2-yl)-2,5-diphenyltetrazolium bromide (MTT). The 50% cytotoxic concentration (CC50 in μg/ml) was defined as the concentration of compound that reduced the absorbance of the mock-infected control sample by 50%. The percent protection achieved by the compound in HIV-infected cells was calculated by the following formula: […]
Examples of inhibition of cell proliferation by particular compounds of formula (I) can be found by looking at the respective CC50 values in the MT-4 cell line.
Cells: MT-4 cells (Miyoshi et al., 1982) were grown and maintained in RPMI 1640 medium supplemented with 10% heat-inactivated fetal calf serum, 2 mM I-glutamine, 0.1% sodium bicarbonate, and 20 æg of gentamicin per ml.

[2] = test system: HIV (MT4-IIIB); experiment: Anti-HIV activity: inhibition of HIV-induced cytopathogenic effect in MT-4 cells (MTT); type: cell-based; details: Human immunodeficiency virus 1, IIIB
[3] = molecular target: T1, His6-tagged HIV-1 integrase / flag-LEDGF/p75 interaction (Human immunodeficiency virus type 1 group M subtype B, UniProt P04585); experiment: AlphaScreen assay of LEDGF-integrase interaction inhibition; type: binding; details: compounds tested from 0.1 up to 100 μM
T1 construct: His6-tagged HIV-1 integrase; made in house
Method: Alphascreen Assay to Measure the LEDGF-Integrase Interaction Inhibitory Activity of Compounds of the Invention
The AlphaScreen assay was performed according to the manufacturer's protocol (Perkin Elmer, Benelux). Reactions were performed in 25 μl final volume in 384-well Optiwell™ microtiter plates (Perkin Elmer). The reaction buffer contained 25 mM Tris-HCl (pH 7.4), 150 mM NaCl, 1 mM MgCl2, 0.01% (v/v) Tween-20 and 0.1% (w/v) bovine serum albumin. His6-tagged integrase (300 nM final concentration) was incubated with the compounds for 30 min at 4° C. The compounds were added at varying concentrations spanning a wide range from 0.1 up to 100 μM. Afterwards 100 nM flag-LEDGF/p75 was added and incubation was prolonged for an additional hour at 4° C. Subsequently 5 μl of Ni-chelate-coated acceptor beads and 5 μl anti-flag donor beads were added to a final concentration of 20 μg/ml of both beads. Proteins and beads were incubated for 1 h at 30° C. in order to allow association to occur. Exposure of the reaction to direct light was omitted as much as possible and the emission of light from the acceptor beads was measured in the EnVision plate reader (Perkin Elmer, Benelux) and analyzed using the EnVision manager software. IN/DNA binding was analyzed in a similar setting using His6-tagged integrase (1 μM final concentration) and an oligodeoxynucleotide mimicking the IN ELISA oligonucleotide substrate (30 nM final concentration). Counterscreens with JPO2 or PogZ, respectively, were essentially performed as described previously.
Expression and purification of recombinant proteins: His6-tagged HIV-1 integrase, 3×flag-tagged LEDGF/p75, MBP-JPO2 and MBP-PogZ were purified for AlphaScreen applications as described previously 23,25,56.

CCCC(C(=O)O)c1c(C)nc(N2CCCCC2)nc1N1CCCCC1 (stereo not drawn) [cpd 148]
CC50 [1]: 138 µM | pEC50 [2]: 4.74 | pIC50 [3]: 4.47

CCCC(C(=O)O)c1c(C)nc(N2CCCCC2)nc1-c1ccc(F)cc1F (stereo not drawn) [cpd 130]
CC50 [1]: 99 µM | pEC50 [2]: 4.64 | pIC50 [3]: 4.76

CCCC(C(=O)O)c1c(C)nc(N2CCCN(CC)CC2)nc1-c1ccc(C)cc1 (stereo not drawn) [cpd 56]
CC50 [1]: > 250 µM | pEC50 [2]: 4.00 | pIC50 [3]: 4.13

CCCC(C(=O)O)c1c(C)nc(N2CCCCC2)nc1-c1ccccc1 (stereo not drawn) [cpd 20]
CC50 [1]: 120 µM | pEC50 [2]: 4.80 | pIC50 [3]: 4.90

Cc1ccc(-c2nc(N3CCCCC3)nc(C)c2C(CCCC(F)(F)F)C(=O)O)cc1 (stereo not drawn) [cpd 124]
CC50 [1]: 124 µM | pEC50 [2]: 5.28 | pIC50 [3]: 4.70

CCCC(C(=O)O)c1c(C)nc(-c2ccccc2)nc1-c1ccc(Cl)cc1 (stereo not drawn) [cpd 102]
CC50 [1]: 143 µM | pEC50 [2]: 4.87 | pIC50 [3]: 4.87

CCCC(C(=O)O)c1c(C)nc(-c2ccccc2)nc1-c1ccc2c(c1)CCO2 (stereo not drawn) [cpd 70]
CC50 [1]: 90 µM | pEC50 [2]: 4.38 | pIC50 [3]: 4.83

CCCC(C(=O)O)c1c(C)nc(N2CCCC(C)C2)nc1-c1ccc(C)cc1 (stereo not drawn) [cpd 40]
CC50 [1]: 120 µM | pEC50 [2]: 4.61 | pIC50 [3]: 4.60

CCCC(C(=O)O)c1c(C)nc(-c2ccccc2)nc1N1CCCCC1 (stereo not drawn) [cpd 60]
CC50 [1]: 61 µM | pEC50 [2]: 4.88 | pIC50 [3]: 5.33

CCCC(C(=O)O)c1c(C)nc(N2CCCC2)nc1-c1ccc(C)cc1 (stereo not drawn) [cpd 30]
CC50 [1]: 143 µM | pEC50 [2]: 4.79 | pIC50 [3]: 5.34

CCCC(C(=O)O)c1c(C)nc(N2CCCCC2)nc1-c1ccc(OC)cc1F (stereo not drawn) [cpd 136]
CC50 [1]: 127 µM | pEC50 [2]: 4.31 | pIC50 [3]: 4.68

CCCC(C(=O)O)c1c(C)nc(N(C)C2CCCCC2)nc1-c1ccc(C)cc1 (stereo not drawn) [cpd 12]
CC50 [1]: 81.8 µM | pEC50 [2]: 4.32 | pIC50 [3]: 4.60

From patent US8906906B2, “Viral replication inhibitors” (Katholieke Universiteit Leuven, priority 2009, dated 2014)
